According to US8013006B2:
Read-outs that look alike come from different tables or passages of the source.

Legend:
HCV replicon = assay: microbe, parasite or virus in culture; type: cell-based
[1] = Hepatitis C virus, 48 h, read-out: Replicon IC5Os μM
[2] = Hepatitis C virus, 48 h, read-out: Replicon IC5Os
[3] = bicistronic HCV replicon, determined by firefly luciferase signal, cells cultured with compound for 2 days, read-out: Replicon IC5Os

Structure (SMILES) | melting point | IC50 (HCV replicon; [1]) | IC50 (HCV replicon; [2]) | IC50 (HCV replicon; [3])
CCOc1ccc2c(C#N)c(-c3ccc(N(C)S(C)(=O)=O)cc3)n(C)c2c1 | 203 to 205 °C | – | – | –
CCCOC(=O)Nc1ccc(-c2c(C#N)c3ccc(OC(F)F)cc3n2CC2CC2)cc1 | 125 to 126 °C | – | – | –
CCn1c(-c2ccc(NC(=O)COC)cc2)c(C#N)c2ccc(OC(C)C)cc21 | 169 to 173 °C | – | – | –
CCn1c(-c2ccc3c(c2)OCO3)c(C#N)c2ccc(OC)cc21 [Compound 22] | 146 to 149 °C | 0.5 to 2 µM | – | –
CCn1c(NC(=O)c2cccc(C)c2)c(C#N)c2ccc(OC)cc21 [Compound 23] | 234 to 235 °C | < 0.5 µM | – | –
CCn1c(NC(C)=O)c(C#N)c2ccc([N+](=O)[O-])cc21 [Compound 25, N-(3-cyano-1-ethyl-6-nitro-1H-indol-2-yl)acetamide] | 291 to 293 °C | > 2 µM | – | –
COc1ccc(-n2cc(C(C)=O)c3ccc(OC)cc32)cc1 [Compound 48] | 138 to 142 °C | 0.5 to 2 µM | – | –
CCn1c(C#Cc2ccc(N)cc2)c(C#N)c2ccc(OC)cc21 [Compound 69] | 163 to 166 °C | 0.5 to 2 µM | – | –
CCn1c(-c2ccc(NC(=O)C3CC3)cc2)c(C#N)c2ccc(OC)cc21 [Compound 81] | 209 to 211 °C | < 0.5 µM | – | –
CCC(=O)Nc1ccc(C#Cc2c(C#N)c3ccc(OC)cc3n2CC)cc1 [Compound 82] | 223 to 228 °C | 0.5 to 2 µM | – | –
CCCn1c(-c2ccc(NS(=O)(=O)CC)cc2)c(C#N)c2ccc(OC)cc21 [Compound 85] | 163 to 165 °C | < 0.5 µM | – | –
CCS(=O)(=O)Nc1ccc(-c2c(C#N)c3ccc(OC)cc3n2C2CCC2)cc1 [Compound 86] | 158 to 160 °C | < 0.5 µM | – | –
CCn1c(-c2ccc(NS(=O)(=O)C(C)C)cc2)c(C#N)c2ccc(OC)cc21 [Compound 88] | 209 to 213 °C | 0.5 to 2 µM | – | –
CCn1c(C#Cc2ccccc2)c(C#N)c2ccc(C(N)=O)cc21 [Compound 94] | 262 to 265 °C | 0.5 to 2 µM | – | –
CCn1c(C#Cc2cccc(OC)c2)c(C#N)c2ccc(C(N)=O)cc21 [Compound 95] | 248 to 251 °C | 0.5 to 2 µM | – | –
CCn1c(C#Cc2ccc(N)cc2)c(C#N)c2ccc(C(N)=O)cc21 [Compound 96] | 243 to 250 °C | 0.5 to 2 µM | – | –
COc1ccc(-n2cc(C#N)c3ccc(Cl)cc32)cc1 [Compound 119] | 126 to 128 °C | 0.5 to 2 µM | – | –
CCn1c(C#Cc2ccc(NS(=O)(=O)CC)cc2)c(C#N)c2ccc(OC)cc21 [Compound 131] | 199 to 204 °C | 0.5 to 2 µM | – | –
CCn1c(C#Cc2ccc(NS(=O)(=O)C(C)C)cc2)c(C#N)c2ccc(OC)cc21 [Compound 132] | 209 to 212 °C | 0.5 to 2 µM | – | –
CCn1c(C#Cc2ccccc2Cl)c(C#N)c2ccc(OC)cc21 [Compound 134] | 155 to 157 °C | 0.5 to 2 µM | – | –
CCn1c(C#Cc2ccc(NC(=O)COC)cc2)c(C#N)c2ccc(OC)cc21 [Compound 139] | 191 to 195 °C | 0.5 to 2 µM | – | –
CCn1c(C#Cc2cccc(C)c2)c(C#N)c2ccc(OC)cc21 [Compound 144] | 97 to 100 °C | 0.5 to 2 µM | – | –

Structure (SMILES) | melting point | IC50 (HCV replicon; [1]) | IC50 (HCV replicon; [2]) | IC50 (HCV replicon; [3])
CCn1c(C#Cc2ccc(C(C)(C)C)cc2)c(C#N)c2ccc(OC)cc21 [Compound 145] | 110 to 113 °C | 0.5 to 2 µM | – | –
CCn1c(C#Cc2ccc(NC(=O)C3CCC3)cc2)c(C#N)c2ccc(OC)cc21 [Compound 153] | 225 to 228 °C | 0.5 to 2 µM | – | –
CCn1c(C#Cc2ccc(CNS(=O)(=O)CC)cc2)c(C#N)c2ccc(OC)cc21 [Compound 157, Ethanesulfonic acid [4-(3-cyano-1-ethyl-6-methoxy-1H-indol-2-ylethynyl)-phenyl]methyl amide] | 149 to 153 °C | – | – | –
CCn1c(C#Cc2ccc(CC#N)cc2)c(C#N)c2ccc(OC)cc21 [Compound 161] | 174 to 176 °C | 0.5 to 2 µM | – | –
CCn1c(C#Cc2ccc(O)cc2)c(C#N)c2ccc(OC)cc21 [Compound 172] | 221 to 223 °C | 0.5 to 2 µM | – | –
CCn1c(C#Cc2cccc(N)c2)c(C#N)c2ccc(OC)cc21 [Compound 173] | 150 to 153 °C | 0.5 to 2 µM | – | –
CCn1c(C#Cc2ccc3c(c2)OCCO3)c(C#N)c2ccc(OC)cc21 [Compound 175] | 132 to 135 °C | 0.5 to 2 µM | – | –
CCn1c(C#Cc2ccc(C(F)(F)F)cc2)c(C#N)c2ccc(O)cc21 [Compound 185] | 157 to 160 °C | 0.5 to 2 µM | – | –
CCn1c(C#Cc2ccccc2)c(C#N)c2ccc(O)cc21 [Compound 188] | 209 to 212 °C | 0.5 to 2 µM | – | –
CCn1c(C#Cc2cccc(O)c2)c(C#N)c2ccc(C(F)(F)F)cc21 [Compound 196] | 187 to 189 °C | 0.5 to 2 µM | – | –
CCn1c(C#Cc2ccc(N)cc2)c(C#N)c2ccc(C(F)(F)F)cc21 [Compound 200] | 187 to 189 °C | 0.5 to 2 µM | – | –
CCn1c(C#Cc2ccc(N(C)C)cc2)c(C#N)c2ccc(C(F)(F)F)cc21 [Compound 201] | 147 to 150 °C | 0.5 to 2 µM | – | –
CCn1c(C#Cc2cccc(NC(C)=O)c2)c(C#N)c2ccc(OC)cc21 [Compound 205] | 181 to 184 °C | 0.5 to 2 µM | – | –
CCC(=O)Nc1cccc(C#Cc2c(C#N)c3ccc(OC)cc3n2CC)c1 [Compound 206] | 187 to 191 °C | 0.5 to 2 µM | – | –
CCn1c(C#Cc2cccc(NC(=O)C(C)C)c2)c(C#N)c2ccc(OC)cc21 [Compound 207] | 179 to 183 °C | 0.5 to 2 µM | – | –
CCn1c(C#Cc2cccc(NC(=O)C3CC3)c2)c(C#N)c2ccc(OC)cc21 [Compound 211] | 186 to 191 °C | 0.5 to 2 µM | – | –
CCn1c(C#Cc2cccc(NC(=O)C3CCC3)c2)c(C#N)c2ccc(OC)cc21 [Compound 213] | 165 to 168 °C | 0.5 to 2 µM | – | –
CCn1c(NC(=O)C2CC2)c(C#N)c2ccc(OC)cc21 [Compound 216] | 261 °C | 0.5 to 2 µM | – | –
CCn1c(NC(=O)OCC(C)C)c(C#N)c2ccc(OC)cc21 [Compound 217] | 272 to 273 °C | < 0.5 µM | – | –
CCn1c(C#Cc2cccc(NC=O)c2)c(C#N)c2ccc(OC)cc21 [Compound 218] | 174 to 177 °C | 0.5 to 2 µM | – | –
CCn1c(C#Cc2cccc(NC(=O)COC)c2)c(C#N)c2ccc(OC)cc21 [Compound 219] | 145 to 149 °C | 0.5 to 2 µM | – | –
CCn1c(C#Cc2cccc(NC(=O)NCCCl)c2)c(C#N)c2ccc(OC)cc21 [Compound 221] | 195 to 200 °C | 0.5 to 2 µM | – | –

Structure (SMILES) | melting point | IC50 (HCV replicon; [1]) | IC50 (HCV replicon; [2]) | IC50 (HCV replicon; [3])
COc1ccc2c(C#N)c(C#Cc3ccc(C(C)(C)C)cc3)[nH]c2c1 [Compound 233] | 232 to 234 °C | 0.5 to 2 µM | – | –
CCn1c(-c2ccc(NS(C)(=O)=O)cc2)c(C#N)c2cc(OC)ccc21 [Compound 243] | 194 to 198 °C | < 0.5 µM | – | –
CCCS(=O)(=O)Nc1ccc(-c2c(C#N)c3ccc(OC)cc3n2CC)cc1 [Compound 251] | 186 to 187 °C | 0.5 to 2 µM | – | –
CCn1c(-c2ccc(NS(=O)(=O)CCCCl)cc2)c(C#N)c2ccc(OC)cc21 [Compound 252] | 176 to 177 °C | 0.5 to 2 µM | – | –
CCn1c(-c2ccc(OCCNS(=O)(=O)CC)cc2)c(C#N)c2ccc(OC)cc21 [Compound 269] | 153 to 158 °C | 0.5 to 2 µM | – | –
CCn1c(-c2cccc(S(=O)(=O)NC)c2)c(C#N)c2ccc(OC)cc21 [Compound 331] | 160 to 165 °C | – | 0.5 to 2 µM | –
CCn1c(-c2ccc3c(c2)oc(=O)n3C)c(C#N)c2ccc(OC)cc21 [Compound 341] | 227 to 230 °C | – | 0.5 to 2 µM | –
CCS(=O)(=O)Nc1ccc(-c2c(C#N)c3ccc(OC)cc3n2C)cc1 [Compound 345] | 191 to 192 °C | – | 0.5 to 2 µM | –
CCCn1c(-c2ccc(NS(C)(=O)=O)cc2)c(C#N)c2ccc(OC)cc21 [Compound 346] | 178 to 180 °C | – | < 0.5 µM | –
CCn1c(-c2ccc(NS(=O)(=O)CC)cc2)c(C#N)c2ccc(C(F)(F)F)cc21 [Compound 366] | 223 to 225 °C | – | < 0.5 µM | –
CCCS(=O)(=O)Nc1ccc(-c2c(C#N)c3ccc(C(F)(F)F)cc3n2CC)cc1 [Compound 367] | 225 to 227 °C | – | 0.5 to 2 µM | –
CCn1c(-c2ccc(NS(=O)(=O)CCCCl)cc2)c(C#N)c2ccc(C(F)(F)F)cc21 [Compound 369] | 174 to 177 °C | – | 0.5 to 2 µM | –
CCn1c(-c2ccc(S(N)(=O)=O)cc2)c(C#N)c2cc(Cl)ccc21 [Compound 408] | 231 to 235 °C | – | 0.5 to 2 µM | –
CCOc1ccc2c(C#N)c(-c3ccc(NS(C)(=O)=O)cc3)n(C)c2c1 [Compound 413] | 184 to 185 °C | – | < 0.5 µM | –
CCOc1ccc2c(C#N)c(-c3ccc(NS(C)(=O)=O)cc3)n(CC)c2c1 [Compound 415] | 163 to 165 °C | – | < 0.5 µM | –
CCn1c(-c2ccc(CNS(=O)(=O)CCN3CCOCC3)cc2)c(C#N)c2ccc(OC)cc21 [Compound 668, 2-morpholin-4-yl-ethanesulfonic acid [4-(3-cyano-1-ethyl-6-methoxy-1H-indol-2-yl)-phenyl]methyl amide] | 171 to 174 °C | – | – | –
CCn1c(-c2ccc(C(=O)N3CCC3)cc2)c(C#N)c2cc(OC)ccc21 [Compound 862] | – | – | – | > 2 µM
CCn1c(-c2ccc(N3CCOC3=O)cc2)c(C#N)c2ccc(OC)cc21 [Compound 863] | – | 0.5 to 2 µM | – | –
CCn1c(-c2cccc(N3CCOC3=O)c2)c(C#N)c2ccc(OC)cc21 [Compound 864] | – | – | – | 0.5 to 2 µM
CCCn1c(-c2ccc(N3CCCS3(=O)=O)cc2)c(C=O)c2ccc(OC)cc21 [Compound 865] | – | – | – | > 2 µM
